Laboratory results taken from patent publication US10668051B2, “Modulators of calcium release-activated calcium channel” (Rhizen Pharmaceuticals SA, priority 2009, dated 2020).
Where a name gives a salt, the structure may show the parent alone.

Target: CRAC channels (Homo sapiens (Human), UniProt Q96D31)
Assay: In-vitro CRAC channel inhibition assay in Jurkat cells (thapsigargin-induced calcium influx)
Type: cell-based
Protocol: 1A. In-Vitro CRAC Channel Inhibition Assay in Jurkat Cells
Plate is incubated at 37° C./5% CO2 for 30 min followed by further 15 min incubation at room temperature. Test compounds (DMSO stocks diluted in Ca^2+ and Mg^2+ free Hanks buffer) at desired concentrations were added to the wells and incubated for 15 min. Thapsigargin (1 μM final concentration) was added to the wells and incubated for 15 min to inhibit the Sarco-endoplasmic reticulum Ca^2+ ATPase pump thereby depleting endoplasmic calcium and raising cytosolic calcium concentrations. Store-operated calcium entry was initiated by adding extracellular Ca^2+ to a final concentration of 1.8 mM. Fluorescence was monitored over 5 min on a plate reader (BMG Labtech., Germany) with excitation at 485 nm and; an emission wavelength at 520 nm. Data were analyzed using GraphPad Prism. IC50 for each compound was determined based on the percent inhibition of thapsigargin-induced calcium influx into cells.

CRAC channels, sequence (Q96D31 whole entry): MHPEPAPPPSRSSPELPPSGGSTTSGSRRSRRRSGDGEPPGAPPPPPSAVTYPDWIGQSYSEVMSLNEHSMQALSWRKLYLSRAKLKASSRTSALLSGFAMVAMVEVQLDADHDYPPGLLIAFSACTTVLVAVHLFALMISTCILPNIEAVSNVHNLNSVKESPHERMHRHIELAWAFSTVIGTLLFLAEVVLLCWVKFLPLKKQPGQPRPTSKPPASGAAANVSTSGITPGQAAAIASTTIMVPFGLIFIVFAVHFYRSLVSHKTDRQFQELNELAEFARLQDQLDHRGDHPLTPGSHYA

Structure (SMILES)	inhibition at 1 µM [%]	% inhibition (1 uM) [%]
Cc1ncsc1C(=O)Nc1ccc(-n2nc(C(F)(F)F)cc2C2CC2)nc1 [Example 102, N-{6-[5-cyclopropyl-3-(trifluoromethyl)-1H-pyrazol-1-yl]pyridin-3-yl}-4-methylthiazole-5-carboxamide hydrochloride]	34.9	–
Cc1ncoc1C(=O)Nc1ccc(-n2nc(C(F)(F)F)cc2C2CC2)c(F)c1 [Example 132, N-{4-[5-cyclopropyl-3-(trifluoromethyl)-1H-pyrazol-1-yl]-3-fluorophenyl}-4-methyloxazole-5-carboxamide]	85.2	–
O=C(Nc1ccc(-n2nc(C(F)(F)F)cc2C2CC2)nc1)c1ccncc1F [Example 114, N-{6-[5-cyclopropyl-3-(trifluoromethyl)-1H-pyrazol-1-yl]pyridin-3-yl}-3-fluoroisonicotinamide]	88.7	–
O=C(Nc1ccc(-n2nc(C3CC3)cc2C2CC2)c(F)c1)c1c(Cl)cncc1Cl [Example 127, 3,5-dichloro-N-[4-(3,5-dicyclopropyl-1H-pyrazol-1-yl)-3-fluorophenyl]isonicotinamide]	66.3	–
Cc1ccccc1C(=O)Nc1ccc(-n2nc(C3CC3)cc2C2CC2)cc1 [Example 7, N-[4-(3,5-dicyclopropyl-1H-pyrazol-1-yl)phenyl]-2-methylbenzamide]	99	–
O=C(Nc1ccc(-n2nc(C3CC3)cc2C2CC2)cc1)c1ccncc1F [Example 16, N-[4-(3,5-dicyclopropyl-1H-pyrazole-1-yl)phenyl]-3-fluoroisonicotinamide]	92.8	–
O=C(Nc1cccc(F)c1F)c1ccc(-n2nc(C(F)(F)F)cc2C2CC2)c(F)c1 [Example 99, 4-[5-cyclopropyl-3-(trifluoromethyl)-1H-pyrazol-1-yl]-N-(2,3-difluorophenyl)-3-fluorobenzamide]	56.2	–
Cc1nnsc1C(=O)Nc1ccc(-n2nc(C(F)(F)F)c(Cl)c2C2CC2)c(F)c1 [Example 95, N-{4-[4-chloro-5-cyclopropyl-3-(trifluoromethyl)-1H-pyrazol-1-yl]-3-fluorophenyl}-4-methyl-1,2,3-thiadiazole-5-carboxamide]	100	–
Cc1ccccc1NC(=O)c1ccc(-n2nc(C3CC3)cc2C2CC2)nc1 [Example 42, 6-(3,5-dicyclopropyl-1H-pyrazol-1-yl)-N-o-tolylnicotinamide]	26.2	–
O=C(Nc1ccc(-n2nc(C3CC3)cc2C2CC2)nc1)c1ccncc1 [Example 47, N-[6-(3,5-dicyclopropyl-1H-pyrazol-1-yl)pyridin-3-yl]isonicotinamide dihydrochloride]	10.4	–
O=S(=O)(Nc1ccc(-n2nc(C3CC3)cc2C2CC2)cc1)c1ccccc1 [Example 27, N-[4-(3,5-dicyclopropyl-1H-pyrazol-1-yl)phenyl]benzenesulfonamide]	91.2	–
O=C(Nc1ccc(-n2nc(C(F)(F)F)cc2C2CC2)cc1)c1ccncc1 [Example 66, N-{4-[5-cyclopropyl-3-(trifluoromethyl)-1H-pyrazol-1-yl]phenyl}pyridine-4-carboxamide hydrochloride]	100	–
Cc1noc(C)c1C(=O)Nc1ccc(-n2nc(C(F)(F)F)cc2C2CC2)nc1 [Example 103, N-{6-[5-cyclopropyl-3-(trifluoromethyl)-1H-pyrazol-1-yl]pyridin-3-yl}-3,5-dimethylisoxazole-4-carboxamide]	19.4	–
O=C(Nc1c(F)cccc1F)c1ccc(-n2nc(C(F)(F)F)cc2C2CC2)nc1 [Example 122, 6-[5-cyclopropyl-3-(trifluoromethyl)-1H-pyrazol-1-yl]-N-(2,6-difluorophenyl) nicotinamide]	100	–
Cc1ccccc1C(=O)Nc1ccc(-n2nc(C3CC3)cc2C2CC2)c(F)c1 [Example 31, N-[4-(3,5-dicyclopropyl-1H-pyrazol-1-yl)-3-fluorophenyl]-2-methyl benzamide]	77	–
Cc1nnsc1C(=O)Nc1ccc(-n2nc(C3CC3)cc2C2CC2)nc1 [Example 38, N-[6-(3,5-dicyclopropyl-1H-pyrazol-1-yl)pyridin-3-yl]-4-methyl-1,2,3-thiadiazole-5-carboxamide hydrochloride]	52.7	–
O=C(Nc1ccc(-n2nc(C3CC3)cc2C2CC2)nc1)c1c(Cl)cncc1Cl [Example 50, 3,5-dichloro-N-[6-(3,5-dicyclopropyl-1H-pyrazol-1-yl)pyridin-3-yl]isonicotinamide hydrochloride]	29.8	–
O=C(Nc1ccc(-n2nc(C3CC3)cc2C2CC2)c(F)c1)c1cccnc1 [Example 34, N-[4-(3,5-dicyclopropyl-1H-pyrazol-1-yl)-3-fluorophenyl]nicotinamide hydrochloride]	21.5	–
CS(=O)(=O)c1ccc(C(=O)Nc2ccc(-n3nc(C4CC4)cc3C3CC3)cc2)cc1 [Example 11, N-[4-(3,5-dicyclopropyl-1H-pyrazol-1-yl)phenyl]-4-(methylsulfonyl)benzamide]	71.9	–

Structure (SMILES)	inhibition at 1 µM [%]	% inhibition (1 uM) [%]
O=C(Nc1c(Cl)cccc1Cl)c1ccc(-n2nc(C(F)(F)F)cc2C2CC2)c(F)c1 [Example 98]	85.6	–
O=C(Cc1ccncc1)Nc1ccc(-n2nc(C3CC3)cc2C2CC2)cc1 [Example 24, N-[4-(3,5-dicyclopropyl-1H-pyrazol-1-yl)phenyl]-2-(pyridin-4-yl)acetamide hydrochloride]	38	–
O=C(Cc1ccccc1)Nc1ccc(-n2nc(C3CC3)cc2C2CC2)cc1 [Example 19, N-[4-(3,5-dicyclopropyl-1H-pyrazol-1-yl)phenyl]-2-phenylacetamide]	73.5	–
O=C(Nc1ccc(-n2nc(C3CC3)cc2C2CC2)nc1)c1cccnc1 [Example 46, N-[6-(3,5-dicyclopropyl-1H-pyrazol-1-yl)pyridin-3-yl]nicotinamide dihydrochloride]	0.26	–
O=C(Nc1ccc(-n2nc(C(F)(F)F)cc2C2CC2)nc1)c1ccccn1 [Example 109, N-{6-[5-cyclopropyl-3-(trifluoromethyl)-1H-pyrazol-1-yl]pyridin-3-yl}picolinamide]	6.18	–
Cc1ncncc1C(=O)Nc1cnc(-n2nc(C(F)(F)F)cc2C2CC2)nc1 [Example 133, N-{2-[5-cyclopropyl-3-(trifluoromethyl)-1H-pyrazol-1-yl]pyrimidin-5-yl}-4-methylpyrimidine-5-carboxamide]	5.62	–
Cc1oncc1C(=O)Nc1ccc(-n2nc(C3CC3)cc2C2CC2)cc1 [Example 4, N-[4-(3,5-dicyclopropyl-1H-pyrazol-1-yl)phenyl]-5-methylisoxazole-4-carboxamide]	100	–
O=C(Nc1cnc(-n2nc(C(F)(F)F)cc2C2CC2)nc1)c1c(F)cccc1F [Example 124, N-{2-[5-cyclopropyl-3-(trifluoromethyl)-1H-pyrazol-1-yl]pyrimidin-5-yl}-2,6-difluorobenzamide]	86.2	–
O=C(Nc1c(F)cccc1Cl)c1ccc(-n2nc(C(F)(F)F)cc2C2CC2)c(F)c1 [Example 128, N-(2-chloro-6-fluorophenyl)-4-[5-cyclopropyl-3-(trifluoromethyl)-1H-pyrazol-1-yl]-3-fluorobenzamide]	100	–
Cc1ccccc1C(=O)Nc1ccc(-n2nc(C(F)(F)F)cc2C2CC2)cc1 [Example 60, N-{4-[5-cyclopropyl-3-(trifluoromethyl)-1H-pyrazol-1-yl]phenyl}-2-methylbenzamide]	83.7	–
Cc1ncsc1CNc1ccc(-n2nc(C(F)(F)F)cc2C2CC2)cc1 [Example 74, 4-[5-cyclopropyl-3-(trifluoromethyl)-1H-pyrazol-1-yl]-N-[(4-methylthiazol-5-yl)methyl]aniline]	100	–
Cc1ncncc1NC(=O)Nc1ccc(-n2nc(C(F)(F)F)cc2C2CC2)cc1 [Example 77, 1-{4-[5-cyclopropyl-3-(trifluoromethyl)-1H-pyrazol-1-yl]phenyl}-3-(4-methylpyrimidin-5-yl)urea]	44	–
O=C(CN1CCOCC1)Nc1ccc(-n2nc(C3CC3)cc2C2CC2)cc1 [Example 26, N-[4-(3,5-dicyclopropyl-1H-pyrazol-1-yl)phenyl]-2-morpholinoacetamide]	43	–
Cl.O=C(Nc1ccc(-n2nc(C3CC3)cc2C2CC2)c(F)c1)c1ccncc1 [Example 35, N-[4-(3,5-dicyclopropyl-1H-pyrazol-1-yl)-3-fluorophenyl]isonicotinamde hydrochloride]	–	100
O=C(Nc1ccc(-n2nc(C3CC3)cc2C2CC2)cc1)c1ccncc1 [Example 15, N-[4-(3,5-dicyclopropyl-1H-pyrazol-1-yl)phenyl]isonicotinamide hydrochloride]	94	–
O=C(Cc1ccc(F)cc1)Nc1ccc(-n2nc(C(F)(F)F)cc2C2CC2)cc1 [Example 70, N-{4-[5-cyclopropyl-3-(trifluoromethyl)-1H-pyrazol-1-yl]phenyl}-2-(4-fluorophenyl)acetamide]	68.9	–
Cc1ncncc1C(=O)Nc1ccc(-n2nc(C(F)(F)F)c(Cl)c2C2CC2)c(F)c1 [Example 119, N-{4-[4-chloro-5-cyclopropyl-3-(trifluoromethyl)-1H-pyrazol-1-yl]-3-fluorophenyl}-4-methylpyrimidine-5-carboxamide]	40.5	–
O=C(Nc1ccc(-n2nc(C3CC3)cc2C2CC2)cc1)c1c(Cl)cncc1Cl [Example 17, 3,5-dichloro-N-(4-(3,5-dicyclopropyl-1H-pyrazol-1-yl)phenyl)isonicotinamide]	87.5	–
O=C(Nc1ccc(-n2nc(C3CC3)cc2C2CC2)c(F)c1)c1cccc(F)c1F [Example 32, N-[4-(3,5-dicyclopropyl-1H-pyrazol-1-yl)-3-fluorophenyl]-2,3-difluorobenzamide]	63.6	–
